The test has as its target Lethal factor protease (Bacillus anthracis, UniProt P15917). Description: biochemical.

We go through 25 molecules from patent publication US8242174B2 (priority 2007, dated 2012).

Broadly, the Ki is the equilibrium dissociation constant of an inhibitor or competing ligand from its target.

Sequence of Lethal factor protease (P15917 34-809 limits assumed): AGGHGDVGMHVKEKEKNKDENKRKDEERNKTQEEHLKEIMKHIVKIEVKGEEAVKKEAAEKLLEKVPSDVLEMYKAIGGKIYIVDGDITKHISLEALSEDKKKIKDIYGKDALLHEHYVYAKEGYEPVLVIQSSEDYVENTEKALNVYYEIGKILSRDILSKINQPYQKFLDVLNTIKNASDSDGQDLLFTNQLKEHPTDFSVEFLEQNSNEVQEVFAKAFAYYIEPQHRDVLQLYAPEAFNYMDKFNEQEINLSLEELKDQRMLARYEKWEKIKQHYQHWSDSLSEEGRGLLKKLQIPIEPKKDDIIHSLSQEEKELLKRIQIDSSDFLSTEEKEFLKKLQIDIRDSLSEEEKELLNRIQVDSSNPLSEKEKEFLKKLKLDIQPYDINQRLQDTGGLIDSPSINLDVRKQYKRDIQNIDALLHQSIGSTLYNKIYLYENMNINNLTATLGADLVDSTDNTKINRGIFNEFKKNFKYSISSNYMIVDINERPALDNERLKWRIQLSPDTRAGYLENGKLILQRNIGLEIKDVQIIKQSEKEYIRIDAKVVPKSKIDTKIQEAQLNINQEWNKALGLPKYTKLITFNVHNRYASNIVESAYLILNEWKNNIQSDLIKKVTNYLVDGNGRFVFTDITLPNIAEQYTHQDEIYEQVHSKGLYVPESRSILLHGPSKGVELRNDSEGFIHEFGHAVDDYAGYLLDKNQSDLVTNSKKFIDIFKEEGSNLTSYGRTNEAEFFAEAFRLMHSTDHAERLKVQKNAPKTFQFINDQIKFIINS

As for `Cc1cc(N[C@H](CCCCNCc2cc(C)c(OCc3ccccc3)c(C)c2)C(=O)NO)ccc1F` [Compound 167969, (R)-6-(4-Benzyloxy-3,5-dimethyl-benzylamino)-2-(4-fluoro-3-methyl-phenylamino)-hexanoic acid hydroxyamide], the Ki was found to be 270 nM.

In the case of `Cc1cc(N[C@H](CCCCN(Cc2cc(C)c(F)c(C)c2)Cc2cc(C)c(F)c(C)c2)C(=O)NO)ccc1F` [Compound 167971, (R)-6-[Bis-(4-fluoro-3,5-dimethyl-benzyl)-amino]-2-(4-fluoro-3-methyl-phenylamino)-hexanoic acid hydroxyamide], the inhibition constant (Ki) was found to be 5200 nM.

Regarding `Cc1cc(N[C@H](CCCCNCc2ccc(F)nc2)C(=O)NO)ccc1F` [Compound 167978, (R)-2-(4-Fluoro-3-methyl-phenylamino)-6-[(6-fluoro-pyridin-3-ylmethyl)-amino]-hexanoic acid hydroxyamide], the Ki was determined as 260 nM.

With `Cc1cc(N[C@H](CCCCNCCc2ccccc2)C(=O)NO)ccc1F` [Compound 167979, (R)-2-(4-Fluoro-3-methyl-phenylamino)-6-phenethylamino-hexanoic acid hydroxyamide], the Ki worked out at 210 nM.

In turn, `Cc1cc(N[C@H](CCCCNCc2ccccc2)C(=O)NO)ccc1F` [Compound 167980, (R)-6-Benzylamino-2-(4-fluoro-3-methyl-phenylamino)-hexanoic acid hydroxyamide] yielded an inhibitory constant (Ki) of 150 nM.

With `Cc1cc(N[C@H](CCCCN(Cc2ccccc2)Cc2ccccc2)C(=O)NO)ccc1F` [Compound 167982, (R)-6-Dibenzylamino-2-(4-fluoro-3-methyl-phenylamino)-hexanoic acid hydroxyamide], the Ki amounted to 1800 nM.

In turn, `Cc1cc(N[C@H](CCCCNCc2ccc(F)c(F)c2)C(=O)NO)ccc1F` [Compound 167990, (R)-6-(3,4-Difluoro-benzylamino)-2-(4-fluoro-3-methyl-phenylamino)-hexanoic acid hydroxyamide] showed an inhibition constant (Ki) of 100 nM.

Molecule `Cc1cc(N[C@H](CCCCN(CC2CCCCC2)CC2CCCCC2)C(=O)NO)ccc1F` [Compound 167991, (R)-6-(Bis-cyclohexylmethyl-amino)-2-(4-fluoro-3-methyl-phenylamino)-hexanoic acid hydroxyamide] registered a Ki of 16600 nM.

As to `Cc1cc(N[C@H](CCCCNC(=O)CCc2ccccc2)C(=O)NO)ccc1F` [Compound 167993, (R)-2-(4-Fluoro-3-methyl-phenylamino)-6-(3-phenyl-propionylamino)-hexanoic acid hydroxyamide], the affinity, expressed as Ki, was 880 nM.

On to `Cc1cc(N[C@H](CCCCNC(=O)CCCc2ccccc2)C(=O)NO)ccc1F` [Compound 167994, (R)-2-(4-Fluoro-3-methyl-phenylamino)-6-(4-phenyl-butyrylamino)-hexanoic acid hydroxyamide], for which the inhibition constant (Ki) amounted to 650 nM.

Regarding `Cc1cc(N[C@H](CCCCNCc2ccc(Cl)s2)C(=O)NO)ccc1F` [Compound 168008, (R)-6-[(5-Chloro-thiophen-2-ylmethyl)-amino]-2-(4-fluoro-3-methyl-phenylamino)-hexanoic acid hydroxyamide], the affinity, expressed as Ki, was 60 nM.

As for `Cc1cc(N[C@H](CCCCNC(C)c2ccc(F)cc2)C(=O)NO)ccc1F` (stereo partly drawn) [Compound 168010, (R)-2-(4-Fluoro-3-methyl-phenylamino)-6-[1-(4-fluoro-phenyl)-ethylamino]-hexanoic acid hydroxyamide], the Ki came out at 70 nM.

Regarding `Cc1cc(N[C@H](CCCCN(Cc2ccc(F)cc2)Cc2ccc(F)cc2)C(=O)NO)cc(C)c1F` [Compound 168047, (R)-6-[Bis-(4-fluoro-benzyl)-amino]-2-(4-fluoro-3,5-dimethyl-phenylamino)-hexanoic acid hydroxyamide], the affinity corresponds to a Ki of 790 nM.

Regarding `Cc1cc(N[C@H](CCCCN(Cc2ccc(F)nc2)Cc2ccc(F)nc2)C(=O)NO)ccc1F` [Compound 168080, (R)-6-[Bis-(6-fluoro-pyridin-3-ylmethyl)-amino]-2-(4-fluoro-3-methyl-phenylamino)-hexanoic acid hydroxyamide], the affinity corresponds to a Ki of 10600 nM.

With `Cc1cc(COCCCC[C@@H](Nc2cc(C)c(F)c(C)c2)C(=O)NO)ccc1F` [Compound 168116, (R)-2-(4-Fluoro-3,5-dimethyl-phenylamino)-6-(4-fluoro-3-methyl-benzyloxy)-hexanoic acid hydroxyamide], the Ki was 710 nM.

For the molecule `Cc1cc(CCCCCC[C@@H](Nc2cc(C)c(F)c(C)c2)C(=O)NO)ccc1F` [Compound 168118, (R)-2-(4-Fluoro-3,5-dimethyl-phenylamino)-8-(4-fluoro-3-methyl-phenyl)-octanoic acid hydroxyamide], the Ki was determined as 7200 nM.

`Cc1cc(N[C@H](CCCCNCc2ccc3c(c2)OCO3)C(=O)NO)ccc1F` [Compound 168145, (R)-6-[(Benzo[1,3]dioxol-5-ylmethyl)-amino]-2-(4-fluoro-3-methyl-phenylamino)-hexanoic acid hydroxyamide] came in with a Ki of 170 nM.

In turn, `Cc1cc(N[C@H](CCCCNCC2CCCCC2)C(=O)NO)ccc1F` [Compound 168146, (R)-6-(Cyclohexylmethyl-amino)-2-(4-fluoro-3-methyl-phenylamino)-hexanoic acid hydroxyamide] displayed a Ki of 250 nM.

`Cc1cc(N[C@H](CCCCN(C)Cc2ccc(F)cc2)C(=O)NO)ccc1F` [Compound 168147, (R)-6-[(4-Fluoro-benzyl)-methyl-amino]-2-(4-fluoro-3-methyl-phenylamino)-hexanoic acid hydroxyamide] yielded an inhibitory constant (Ki) of 190 nM.

The molecule `Cc1cc(N[C@H](CCCCNCc2cccc(-c3ccccc3)c2)C(=O)NO)ccc1F` [Compound 168165, (R)-6-[(Biphenyl-3-ylmethyl)-amino]-2-(4-fluoro-3-methyl-phenylamino)-hexanoic acid hydroxyamide] gave an inhibitory constant (Ki) of 120 nM.

Consider `Cc1cc(N[C@H](CCCCNCc2cc3ccccc3o2)C(=O)NO)ccc1F` [Compound 168166, (R)-6-[(Benzofuran-2-ylmethyl)-amino]-2-(4-fluoro-3-methyl-phenylamino)-hexanoic acid hydroxyamide], for which the Ki amounted to 180 nM.

Regarding `CCCC(CCC)CNCCCC[C@@H](Nc1ccc(F)c(C)c1)C(=O)NO` [Compound 168167, (R)-2-(4-Fluoro-3-methyl-phenylamino)-6-(2-propyl-pentylamino)-hexanoic acid hydroxyamide], the inhibition constant (Ki) is 250 nM.

On to `Cc1cc(N[C@H](CCCCNCc2cnccn2)C(=O)NO)ccc1F` [Compound 168168, (R)-2-(4-Fluoro-3-methyl-phenylamino)-6-[(pyrazin-2-ylmethyl)-amino]-hexanoic acid hydroxyamide], for which the affinity corresponds to a Ki of 630 nM.

As for `Cc1cc(N[C@H](CCCCNCc2ccc(Cl)cc2)C(=O)NO)ccc1F` [Compound 168181, (R)-6-(4-Chloro-benzylamino)-2-(4-fluoro-3-methyl-phenylamino)-hexanoic acid hydroxyamide], the inhibition constant (Ki) turned out to be 190 nM.

The molecule `Cc1cc(N[C@H](CCCCNCc2ccc3sccc3c2)C(=O)NO)ccc1F` [Compound 168182, (R)-6-[(Benzo[b]thiophen-5-ylmethyl)-amino]-2-(4-fluoro-3-methyl-phenylamino)-hexanoic acid hydroxyamide] gave an inhibition constant Ki of 150 nM.
